Calls of active or inactive are those of the source. No rule for the calls is given here.

This experiment deals with Nuclear receptor subfamily 5 group A member 2 (Homo sapiens) (UniProt O00482). In words: concentration-dependent NR5A2 reporter suppression – cell-based, luminescence, late stage, dose response (AID 651976). As to conditions: cell-based LRH-1 luciferase reporter, inverse agonist. A general note: A reporter such as luciferase makes a cellular process visible.
Chain of Nuclear receptor subfamily 5 group A member 2 (Homo sapiens) (O00482 whole entry, looked up): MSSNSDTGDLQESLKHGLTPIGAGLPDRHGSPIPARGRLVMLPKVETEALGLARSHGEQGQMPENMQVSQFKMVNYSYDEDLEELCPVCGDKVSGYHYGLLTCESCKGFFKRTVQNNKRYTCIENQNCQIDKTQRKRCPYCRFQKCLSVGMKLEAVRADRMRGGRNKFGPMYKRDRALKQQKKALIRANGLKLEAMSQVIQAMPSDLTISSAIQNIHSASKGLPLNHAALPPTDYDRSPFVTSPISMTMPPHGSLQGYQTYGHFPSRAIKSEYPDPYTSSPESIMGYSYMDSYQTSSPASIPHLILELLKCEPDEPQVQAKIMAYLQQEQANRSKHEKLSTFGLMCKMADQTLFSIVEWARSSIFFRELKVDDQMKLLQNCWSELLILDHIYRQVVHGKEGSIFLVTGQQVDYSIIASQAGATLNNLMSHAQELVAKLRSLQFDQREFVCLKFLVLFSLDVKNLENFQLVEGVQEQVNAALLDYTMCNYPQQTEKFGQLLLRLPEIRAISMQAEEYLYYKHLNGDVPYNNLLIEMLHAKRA
A word on the IC50: it is the concentration at which inhibition is half-maximal. In the case of `CCOc1ccc(NC(=O)CSc2nncc(=O)n2N)cc1`, the IC50 was > 12 µM (inactive).
In the case of `COc1ccc(NC(=O)CN2C(=O)NC3(CCCC3)C2=O)cc1` it was > 35.9 µM (inactive); in that of `CCCc1nnc(SCC(=O)Nc2ccc(C(=O)OCC)cc2)o1`, > 35.9 µM (inactive); in that of `O=C1CCCN2N=C(SCC(=O)Nc3ccc(Br)cc3)SC2=N1`, > 35.9 µM (inactive).
Regarding `COC(=O)c1ccc(CNC(=O)COC(=O)c2cc(Cl)nc(Cl)c2)cc1`, the half-maximal inhibitory concentration (IC50) was 3.04 µM.
With `O=C(NCc1ccco1)c1nn(-c2ccccc2)c(=O)c2ccccc12`, the IC50 is 4.41 µM.
As to `CCOc1ccc(NC(=O)CSc2nnc(C(C)C)n2CC)cc1`, the IC50 is > 12 µM (inactive).
Consider `Cc1ccc(NC(=O)CSc2sc3c(O)cc(=O)[nH]c3c2C#N)c(F)c1`, for which the IC50 was > 35.9 µM (inactive).
For `CCc1c(C)nc(SCC(=O)Nc2ccc3c(c2)OCCO3)[nH]c1=O`, the IC50 was 7.54 µM.
In the case of `COc1ccc(NC(=O)COC(=O)c2c(-c3ccccc3)noc2C)cc1` it was 0.677 µM; in that of `COc1ccc(CC(NC(C)=O)C(=O)NC2CCN(c3nnnn3-c3ccccc3)CC2)cc1` (stereo not drawn), 0.779 µM.
`O=C(CN1C(=O)CCC1=O)Nc1ccc(Br)cc1`: the half-maximal inhibitory concentration (IC50) was 2.25 µM.
Consider `COC(=O)c1ccc(NC(=O)CSc2nc3ncccc3[nH]2)cc1`, for which the IC50 was > 35.9 µM (inactive).
`O=C(CSc1nc(=O)n2cc(Cl)ccc2n1)Nc1ccc2c(c1)OCCO2`: the IC50 is > 35.9 µM (inactive).
In the case of `N#CCSc1ccccc1NC(=O)CN1C(=O)C2CC=CCC2C1=O` (stereo not drawn) it was “inactive”; in that of `COc1ccc(NC(=O)CSc2sc3c(O)cc(=O)[nH]c3c2C#N)c(OC)c1`, “inactive”; in that of `CCc1cc(=O)oc2c(C)c(OCC(=O)NCCN3CCOCC3)ccc12`, > 35.9 µM (inactive).
Regarding `CCCc1cc(=O)oc2c(C)c(OCC(=O)NCCN3CCOCC3)ccc12`, the IC50 was > 35.9 µM (inactive).
In the case of `CCOc1ccc(OCCC(=O)OCC(=O)Nc2ccc3c(c2)OCCO3)cc1`, the IC50 was > 35.9 µM (inactive).
In the case of `O=C(COc1ccc2c3c(c(=O)oc2c1)CCC3)NCc1ccncc1` it was > 35.9 µM (inactive); in that of `Cc1cccc(NC(=O)COC(=O)Cc2cccs2)c1C`, > 35.9 µM (inactive); in that of `CCOc1ccc(NC(=O)COC(=O)CC2CCCCC2)cc1`, > 35.9 µM (inactive).
Take `NC(=O)C1CCN(C(=O)COc2ccc3c4c(c(=O)oc3c2)CCCC4)CC1`: the IC50 is > 12 µM (inactive).
Regarding `COc1ccc(CCNC(=O)COC(=O)Cc2ccccc2[N+](=O)[O-])cc1`, the IC50 was > 35.9 µM (inactive).
Turning to `CC1SC(C)C(=O)N(CC(=O)Nc2ccc3c(c2)OCO3)C1=O` (stereo not drawn), the IC50 is > 35.9 µM (inactive).
As to `CC(=O)c1ccc(NC(=O)C(C)O/N=C(\N)c2ccccc2)cc1` (stereo not drawn), the IC50 was 7.64 µM.
For the molecule `O=c1[nH]c(Nc2ccc3c(c2)OCCO3)nnc1Cc1ccccc1`, the concentration for half-maximal inhibition (IC50) is 2.27 µM.
Consider `O=C(COC(=O)CCN1C(=O)C2CC=CCC2C1=O)NCCc1ccc(F)cc1` (stereo not drawn), for which the IC50 was > 35.9 µM (inactive).
Take `CCOc1ccc(OCCN2C(=O)NC(Cc3c[nH]c4ccccc34)C2=O)cc1` (stereo not drawn): the IC50 was > 35.9 µM (inactive).
With `Cc1cccc(NC(=O)COC(=O)CN2C(=O)c3ccccc3C2=O)c1C` the figure was > 35.9 µM (inactive).
For the molecule `CCOc1ccc(NC(=O)CSc2nccn(-c3ccc4c(c3)OCCO4)c2=O)cc1`, the IC50 was 0.673 µM.
Take `CCCN(CC(=O)Nc1ccc(C(C)=O)cc1)CC(=O)Nc1ccccc1C`: the IC50 result was “inactive”.
Consider `COc1ccc(C2(C)NC(=O)N(CC(=O)NCCC3=CCCCC3)C2=O)cc1OC` (stereo not drawn), for which the IC50 is > 35.9 µM (inactive).
With `CCOc1ccc(NC(=O)CSc2nc3[nH]ncc3c(=O)[nH]2)cc1`, the IC50 was 1.13 µM.
As to `CC(=O)c1ccc(OC(C)C(=O)OCC(=O)NCCc2ccccc2)cc1` (stereo not drawn), the IC50 is > 35.9 µM (inactive).
With `COC(=O)c1ccc(NC(=O)CN2CCN(c3ccc(Cl)cc3)CC2)cc1`, the IC50 was > 35.9 µM (inactive).
In the case of `COc1ccc(NC(=O)CSc2nc(N)c(-c3ccccc3)c(=O)[nH]2)cc1`, the concentration for half-maximal inhibition (IC50) is 1.64 µM.
With `Cc1cc(OCC(=O)Nc2nccs2)c2c(C)cc(=O)oc2c1` the figure was 1.25 µM; with `COCCn1c(C)cc(/C=C(\C#N)C(=O)OCC(=O)Nc2ccc(S(N)(=O)=O)cc2)c1C`, > 35.9 µM (inactive); with `Cc1ccc(NC(=O)COC(=O)C(NS(=O)(=O)c2ccc(Cl)cc2)C(C)O)cc1C` (stereo not drawn), 1.67 µM.
Take `O=C(CSc1nnc(CNC(=O)c2ccccc2F)o1)Nc1ccc2c(c1)OCCO2`: the IC50 was 0.732 µM.
With `Cc1cc(=O)oc2c(C)c(OCC(=O)NC3CC(C)(C)NC(C)(C)C3)ccc12`, the IC50 was > 35.9 µM (inactive).
With `CCc1cc(=O)[nH]c(SCC(=O)Nc2ccc3c(c2)OCCO3)n1` the figure was > 35.9 µM (inactive).
For the molecule `COc1ccc(CCNC(=O)CSc2nn3c(=O)c(C)nnc3s2)cc1OC`, the half-maximal inhibitory concentration (IC50) was 1.37 µM.
For the molecule `Cc1cc(Br)ccc1NC(=O)CN1C(=O)CCC1=O`, the IC50 was 1.06 µM.
Take `COC(=O)c1ccc(NC(=O)CSc2nncn2-c2cccnc2)cc1`: the IC50 was > 35.9 µM (inactive).
For the molecule `Cc1ccc2cccc(OCC(=O)NCCC3=CCCCC3)c2n1`, the IC50 is 1.83 µM.
In the case of `Cc1ccc(NC(=O)CSc2nc3[nH]c(=O)cc(O)c3s2)c(Br)c1` it was “inactive”; in that of `Cc1cc(Br)ccc1NC(=O)CSc1nnc(CN2CCOCC2)n1C`, 7.86 µM.
Consider `O=C(NCC1CCCO1)c1ccc(NC(=O)c2cccc([N+](=O)[O-])c2)cc1` (stereo not drawn), for which the IC50 is 0.386 µM.
With `CC(C)CC1(C)NC(=O)N(CC(=O)Nc2ccc3c(c2)OCCO3)C1=O` (stereo not drawn) the figure was > 35.9 µM (inactive).
With `CCCc1cc(=O)oc2c(C)c(OCC(=O)NCCCn3ccnc3)ccc12`, the IC50 was > 35.9 µM (inactive).
In the case of `O=C(OCC(=O)N1CCN(C(=O)COC(=O)c2ccc(O)cc2O)CC1)c1ccc(O)cc1O`, the IC50 is 1.37 µM.
`Cc1ccc(NC(=O)COC(=O)c2cc(=O)c3ccccc3o2)c(Br)c1`: the IC50 is > 35.9 µM (inactive).
Consider `O=C(COC(=O)c1ccc(Br)cc1)Nc1ccccc1Br`, for which the IC50 is 4.11 µM.
For the molecule `CC(=O)Nc1ccc(N=c2cc([N+](=O)[O-])cc(Cl)n2O)cc1`, the half-maximal inhibitory concentration (IC50) was 0.929 µM.
Take `CCn1c(SCC(=O)Nc2ccc(Cl)cc2)nnc1C1CC1`: the IC50 was > 35.9 µM (inactive).
In the case of `Cc1ccc(NC(=O)COC(=O)C(NS(=O)(=O)c2ccc(Cl)cc2)C(C)O)c(Br)c1` (stereo not drawn) it was > 35.9 µM (inactive).
Consider `O=C(COC(=O)c1ccc(=O)n(Cc2ccccc2)n1)Nc1ccc2c(c1)OCCO2`, for which the IC50 was > 35.9 µM (inactive).
On to `COc1ccc(CCNC(=O)CSc2ccc(NC(C)=O)cc2)cc1OC`, for which the IC50 was 5.44 µM.
In the case of `COc1ccc(NS(=O)(=O)c2ccc(OCC(=O)N3CCN(C)CC3)cc2)cc1Cl` it was 5.3 µM.
As for `O=C(Nc1ccccc1)c1oc2ccccc2c1NC(=O)C1CC1`, the half-maximal inhibitory concentration (IC50) was 9.07 µM.
For `O=C(COc1ccc2c3c(c(=O)oc2c1)CCCC3)NCc1ccccn1`, the IC50 was > 35.9 µM (inactive).
Regarding `COc1ccc(CCNC(=O)COC(=O)c2cc(Cl)nc(Cl)c2)cc1`, the IC50 was > 35.9 µM (inactive).
Regarding `O=C(COC(=O)c1ccc[n+]([O-])c1)Nc1ccc([N+](=O)[O-])cc1Cl`, the IC50 was 7.19 µM.
Consider `O=C(CSc1nnc(CNC(=O)c2c(F)cccc2F)o1)Nc1ccc2c(c1)OCCO2`, for which the half-maximal inhibitory concentration (IC50) is 7.05 µM.
Consider `COc1ccc(NC(=O)COC(=O)c2cc(S(=O)(=O)N3CCCC3)ccc2O)cc1`, for which the IC50 is > 35.9 µM (inactive).
For the molecule `Cc1nn(CC(=O)Nc2ccc3c(c2)OCCO3)c(C)c1[N+](=O)[O-]`, the IC50 is > 35.9 µM (inactive).
As for `Cc1ccc(-c2csc(NC(=O)c3ccc([N+](=O)[O-])o3)n2)cc1`, the IC50 is > 35.9 µM (inactive).
As for `COc1ccc(CCNC(=O)COC(=O)C23CC4CC(CC(C4)C2)C3)cc1`, the IC50 is 1.47 µM.
With `CCCc1cc(=O)oc2cc(OCC(=O)NCCc3ccc(S(N)(=O)=O)cc3)ccc12` the figure was > 35.9 µM (inactive); with `CC(=O)Nc1ncc(Cc2cc(Cl)ccc2Cl)s1`, 8.57 µM.
As to `COc1ccccc1Oc1nnnn1-c1ccc(C(N)=O)cc1`, the 50% inhibitory concentration (IC50) was 9.86 µM.
As for `COc1ccc(-n2c(N)c(C(=O)NCc3cccnc3)sc2=S)cc1`, the IC50 was > 35.9 µM (inactive).
On to `COc1ccc(CCNC(=O)COC(=O)c2cccn2C)cc1`, for which the IC50 was > 35.9 µM (inactive).
With `COC(=O)c1ccc(NC(=O)COc2cccc(-n3cnnn3)c2)cc1`, the 50% inhibitory concentration (IC50) was 2.3 µM.
With `COCC(=O)NC1CCN(CC(=O)Nc2ccc(OC)cc2[N+](=O)[O-])CC1` the figure was > 35.9 µM (inactive).
Turning to `Cc1sc(NC(=O)C(C)C)c(C(=O)Nc2ccccc2)c1C`, the IC50 is 8.16 µM.

Source of the values: PubChem BioAssay AID651976 (The Scripps Research Institute Molecular Screening Center, 2013).
